Measured values from PubChem BioAssay AID1963431 (Molecular Pharmacology Branch, DTP, NCI, 2024).
Several values for one entry are separate records, joined by “and”; a condition that tells them apart may be missing. Equal entries are not always repeated.

System: Rh18 complex spheroid viability, percent test/control
Test: Anticancer human tumor Rh18 cell line growth inhibition [Asc];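 also: spheroids exposed to compound for 7 days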;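 as to viability, T/C: 100% = DMSO vehicle control wells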
Details: for viability, T/C: stronger effect = lower value
Outline: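 Spheroid model: tumor line + HUVEC + hMSC. Single agents and combinations; top conc. at/near clinical Cmax (10 microM if undetermined), half-log dilutions. DMSO stocks at 800-fold test concentration.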

[1] = curve of first compound, second compound 0.1 µM
[2] = curve of first compound, second compound 0.316 µM
[3] = curve of first compound, second compound 1 µM
[4] = curve of first compound, second compound 3.16 µM
[5] = curve of first compound, second compound 10 µM

## O=C(c1ccc(F)c(F)c1Nc1ccc(I)cc1F)N1CC(O)([C@@H]2CCCCN2)C1 + Cc1c(S(C)(=O)=O)c(-c2cc(F)cc(N3CCN(c4ccc(NS(=O)(=O)c5ccc(NC(CCN6CCC(C(=O)OCCCP(=O)(O)O)CC6)CSc6ccccc6)c(S(=O)(=O)C(F)(F)F)c5)cc4)CC3)c2)c(-c2ccc(Cl)cc2)n1C(C)C
[1]
  IC50: < 3.16 nM
[2]
  IC50: < 3.16 nM
[3]
  IC50: < 3.16 nM
[4]
  IC50: < 3.16 nM
[5]
  IC50: < 3.16 nM
Second compound 0.1 µM, first compound 0.00316 µM
  viability, T/C: 14.8%
Second compound 0.1 µM, first compound 0.01 µM
  viability, T/C: 13.6%
Second compound 0.1 µM, first compound 0.0316 µM
  viability, T/C: 17.2%
Second compound 0.1 µM, first compound 0.1 µM
  viability, T/C: 11%
Second compound 0.1 µM, first compound 0.316 µM
  viability, T/C: 6.6%
Second compound 0.1 µM, first compound 1 µM
  viability, T/C: 1.12%
Second compound 0.316 µM, first compound 0.00316 µM
  viability, T/C: 9.21%
Second compound 0.316 µM, first compound 0.01 µM
  viability, T/C: 11.2%
Second compound 0.316 µM, first compound 0.0316 µM
  viability, T/C: 11%
Second compound 0.316 µM, first compound 0.1 µM
  viability, T/C: 8.03%
Second compound 0.316 µM, first compound 0.316 µM
  viability, T/C: 4.04%
Second compound 0.316 µM, first compound 1 µM
  viability, T/C: 0.96%
Second compound 1 µM, first compound 0.00316 µM
  viability, T/C: 8.77%
Second compound 1 µM, first compound 0.01 µM
  viability, T/C: 14.6%
Second compound 1 µM, first compound 0.0316 µM
  viability, T/C: 6.89%
Second compound 1 µM, first compound 0.1 µM
  viability, T/C: 7.25%
Second compound 1 µM, first compound 0.316 µM
  viability, T/C: 3.29%
Second compound 1 µM, first compound 1 µM
  viability, T/C: 0.52%
Second compound 3.16 µM, first compound 0.00316 µM
  viability, T/C: 7.36%
Second compound 3.16 µM, first compound 0.01 µM
  viability, T/C: 7.93%
Second compound 3.16 µM, first compound 0.0316 µM
  viability, T/C: 7.81%
Second compound 3.16 µM, first compound 0.1 µM
  viability, T/C: 5.28%
Second compound 3.16 µM, first compound 0.316 µM
  viability, T/C: 1.59%
Second compound 3.16 µM, first compound 1 µM
  viability, T/C: 0.38%
Second compound 10 µM, first compound 0.00316 µM
  viability, T/C: 5.3%
Second compound 10 µM, first compound 0.01 µM
  viability, T/C: 4.85%
Second compound 10 µM, first compound 0.0316 µM
  viability, T/C: 4.39%
Second compound 10 µM, first compound 0.1 µM
  viability, T/C: 2.53%
Second compound 10 µM, first compound 0.316 µM
  viability, T/C: 1.08%
Second compound 10 µM, first compound 1 µM
  viability, T/C: 0.6%

## C=CC(=O)N1CCN(c2nc(=O)n(-c3c(C)ccnc3C(C)C)c3nc(-c4c(O)cccc4F)c(F)cc23)C(C)C1 (configuration not stated)
Compound 0.0316 µM
  viability, T/C: 117% and 122% and 92.1%
Compound 0.1 µM
  viability, T/C: 95.2% and 169% and 115%
Compound 0.316 µM
  viability, T/C: 106% and 125% and 109%
Compound 1 µM
  viability, T/C: 118% (2×) and 104%
Compound 3.16 µM
  viability, T/C: 133% and 137% and 106%
Compound 10 µM
  viability, T/C: 115% and 89.8% and 92%
Curve of compound
  IC50: > 10000 nM

## CCN1C(C(=O)NC23CCC(C(=O)O)(CC2)CC3)C(c2cccc(Cl)c2F)C2(C(=O)Nc3cc(Cl)ccc32)C12CCCCC2 (configuration not stated) + Cc1c(S(C)(=O)=O)c(-c2cc(F)cc(N3CCN(c4ccc(NS(=O)(=O)c5ccc(NC(CCN6CCC(C(=O)OCCCP(=O)(O)O)CC6)CSc6ccccc6)c(S(=O)(=O)C(F)(F)F)c5)cc4)CC3)c2)c(-c2ccc(Cl)cc2)n1C(C)C
[1]
  IC50: < 9.49 nM
[2]
  IC50: < 9.49 nM
[3]
  IC50: < 9.49 nM
[4]
  IC50: < 9.49 nM
[5]
  IC50: < 9.49 nM
Second compound 0.1 µM, first compound 0.00949 µM
  viability, T/C: 19%
Second compound 0.1 µM, first compound 0.03 µM
  viability, T/C: 21%
Second compound 0.1 µM, first compound 0.0949 µM
  viability, T/C: 10.3%
Second compound 0.1 µM, first compound 0.3 µM
  viability, T/C: 6.82%
Second compound 0.1 µM, first compound 0.949 µM
  viability, T/C: 7.29%
Second compound 0.1 µM, first compound 3 µM
  viability, T/C: 3.96%
Second compound 0.316 µM, first compound 0.00949 µM
  viability, T/C: 12%
Second compound 0.316 µM, first compound 0.03 µM
  viability, T/C: 16.4%
Second compound 0.316 µM, first compound 0.0949 µM
  viability, T/C: 7.76%
Second compound 0.316 µM, first compound 0.3 µM
  viability, T/C: 5.97%
Second compound 0.316 µM, first compound 0.949 µM
  viability, T/C: 4.04%
Second compound 0.316 µM, first compound 3 µM
  viability, T/C: 0.91%
Second compound 1 µM, first compound 0.00949 µM
  viability, T/C: 8.76%
Second compound 1 µM, first compound 0.03 µM
  viability, T/C: 8.85%
Second compound 1 µM, first compound 0.0949 µM
  viability, T/C: 5.21%
Second compound 1 µM, first compound 0.3 µM
  viability, T/C: 4.08%
Second compound 1 µM, first compound 0.949 µM
  viability, T/C: 1.55%
Second compound 1 µM, first compound 3 µM
  viability, T/C: 0.87%
Second compound 3.16 µM, first compound 0.00949 µM
  viability, T/C: 6.63%
Second compound 3.16 µM, first compound 0.03 µM
  viability, T/C: 5.76%
Second compound 3.16 µM, first compound 0.0949 µM
  viability, T/C: 4.28%
Second compound 3.16 µM, first compound 0.3 µM
  viability, T/C: 3.45%
Second compound 3.16 µM, first compound 0.949 µM
  viability, T/C: 0.93%
Second compound 3.16 µM, first compound 3 µM
  viability, T/C: 0.73%
Second compound 10 µM, first compound 0.00949 µM
  viability, T/C: 5.47%
Second compound 10 µM, first compound 0.03 µM
  viability, T/C: 3.7%
Second compound 10 µM, first compound 0.0949 µM
  viability, T/C: 2.69%
Second compound 10 µM, first compound 0.3 µM
  viability, T/C: 1.52%
Second compound 10 µM, first compound 0.949 µM
  viability, T/C: 0.64%
Second compound 10 µM, first compound 3 µM
  viability, T/C: 0.73%

## C#Cc1c(F)ccc2cc(O)cc(-c3ncc4c(N5CC6CCC(C5)N6)nc(OCC56CCCN5CC(F)C6)nc4c3F)c12 (configuration not stated) + CCN1C(C(=O)NC23CCC(C(=O)O)(CC2)CC3)C(c2cccc(Cl)c2F)C2(C(=O)Nc3cc(Cl)ccc32)C12CCCCC2
Curve of first compound, second compound 0.03 µM
  IC50: < 31.6 nM
Curve of first compound, second compound 0.0949 µM
  IC50: < 31.6 nM
Curve of first compound, second compound 0.3 µM
  IC50: < 31.6 nM
Curve of first compound, second compound 0.949 µM
  IC50: < 31.6 nM
Curve of first compound, second compound 3 µM
  IC50: < 31.6 nM
Second compound 0.03 µM, first compound 0.0316 µM
  viability, T/C: 42.7%
Second compound 0.03 µM, first compound 0.1 µM
  viability, T/C: 45.1%
Second compound 0.03 µM, first compound 0.316 µM
  viability, T/C: 43.9%
Second compound 0.03 µM, first compound 1 µM
  viability, T/C: 40.4%
Second compound 0.03 µM, first compound 3.16 µM
  viability, T/C: 41.8%
Second compound 0.03 µM, first compound 10 µM
  viability, T/C: 46.6%
Second compound 0.0949 µM, first compound 0.0316 µM
  viability, T/C: 25.1%
Second compound 0.0949 µM, first compound 0.1 µM
  viability, T/C: 24.1%
Second compound 0.0949 µM, first compound 0.316 µM
  viability, T/C: 22.1%
Second compound 0.0949 µM, first compound 1 µM
  viability, T/C: 28.2%
Second compound 0.0949 µM, first compound 3.16 µM
  viability, T/C: 23.6%
Second compound 0.0949 µM, first compound 10 µM
  viability, T/C: 25.3%
Second compound 0.3 µM, first compound 0.0316 µM
  viability, T/C: 13.1%
Second compound 0.3 µM, first compound 0.1 µM
  viability, T/C: 13.9%
Second compound 0.3 µM, first compound 0.316 µM
  viability, T/C: 14.4%
Second compound 0.3 µM, first compound 1 µM
  viability, T/C: 12.6%
Second compound 0.3 µM, first compound 3.16 µM
  viability, T/C: 15.6%
Second compound 0.3 µM, first compound 10 µM
  viability, T/C: 13.7%
Second compound 0.949 µM, first compound 0.0316 µM
  viability, T/C: 11.7%
Second compound 0.949 µM, first compound 0.1 µM
  viability, T/C: 12.7%
Second compound 0.949 µM, first compound 0.316 µM
  viability, T/C: 11%
Second compound 0.949 µM, first compound 1 µM
  viability, T/C: 12.4%
Second compound 0.949 µM, first compound 3.16 µM
  viability, T/C: 12.3%
Second compound 0.949 µM, first compound 10 µM
  viability, T/C: 10.5%
Second compound 3 µM, first compound 0.0316 µM
  viability, T/C: 8.99%
Second compound 3 µM, first compound 0.1 µM
  viability, T/C: 12.6%
Second compound 3 µM, first compound 0.316 µM
  viability, T/C: 12.4%
Second compound 3 µM, first compound 1 µM
  viability, T/C: 11.5%
Second compound 3 µM, first compound 3.16 µM
  viability, T/C: 8.93%
Second compound 3 µM, first compound 10 µM
  viability, T/C: 11.6%
